The sequences below were run on brain (assay: Maturation of TTM-001 capsid, NGS enrichment in brain of CD-1 Outbred mice). Details: NGS fold-enrichment of TTM-001 matured AAV capsid variants in the brain of CD-1 Outbred mice; intravenous 1.0×10^12 VG/dose; 14 days in life; RNA; relative to non-matured TTM-001 control.
Format: in vivo
From the text: This Example describes maturation of the TTM-001 (SEQ ID NO: 981 (amino acid) and 983 (DNA), comprising SEQ ID NO: 941) and TTM-002 (SEQ ID NO: 982 (amino acid) and 984 (DNA), comprising SEQ ID NO: 2) capsid variants to further enhance their transduction and biodistribution in the central nervous system and evolve the AAV capsid variants to provide further cross-species compatibility. Two approaches were used to mature the TTM-001 and TTM-002 capsid sequences in order to randomize and mutate within and around the peptide insert comprised within loop IV of the capsid variant. […] In the first maturation approach, sets of three contiguous amino acids were randomized across the mutagenesis region in the TTM-001 and TTM-002 sequences, which spanned from position 450 to position 466, numbered according to SEQ ID NO: 981 and 982. In the second maturation approach, mutagenic primers were used to introduce point mutations at a low frequency, scattered across the mutagenesis region in the TTM-001 and TTM-002 sequences ranging from position 449 to position 466, numbered according to SEQ ID NO: 981 and 982. AAV capsid variants arising from each maturation approach for TTM-001 were pooled together and AAV capsid variants arising from each maturation approach for TTM-002 were also pooled together, for subsequent testing and characterization in mice.
The library of pooled matured AAV capsid variants generated from TTM-001 or library of pooled matured AAV capsid variants generated from the TTM-002 matured AAV capsid variant each were intravenously injected into the tail vein of three female CD-1 Outbred mice (Charles River) at a dose of 1.0×10^12 VG/dose. After 14-days in life, the brains of the mice were isolated and RNA was extracted. Following RNA recovery and RT-PCR amplification, a systematic NGS enrichment analysis was performed to calculate the fold enrichment ratio relative to the corresponding TTM-001 or TTM-002 control, and the peptides comprised within the variants were identified. The data for the TTM-001 matured capsid variants is provided in Table 13 and the data for the TTM-002 matured capsid variants is provided in Table 14.

Sequence | Fold enrichment over TTM-001 [fold]
KTINGSGSPHSFVVNQQT | 2.335
KTINSARSPHSKAQNQQT | 2.292
KTINGSGSPHSKAQQSRT | 2.337
KTINGSGSPHSLTWNQQT | 2.698
KTINGSGSPHIYRQNQQT | 2.782
KTINGSGSPHSFVLNQQT | 3.382
KTINGSGSPHSKARFSQT | 2.253
KTINGSGSPHSFVRNQQT | 2.110
KTINGSGSPHSKALCRQT | 2.048
KTINGSGSPHSKAQNEVH | 2.272
KTINGSGSPHSKAQVSKT | 3.406
KTINGSGSPHSKTLRQQT | 3.788
KPLDGSGSPHSKAQNQQT | 2.488
KTINGSGSPHSSKRNQQT | 2.978
KTINGSGSPHSKASRRQT | 3.577
KTINGSGSPHSGLWNQQT | 2.350
KTINGSKSPHRKAQNQQT | 2.696
KTINGSGSPHSRRQNQQT | 2.166
KTINGSGSPHSKAQLRRT | 3.825
KTINGFSSPHRKAQNQQT | 2.276
KEVAGSGSPHSKAQNQQT | 2.250
KTINGSGSPHSKACPLQT | 2.285
KTINGSGSPHSKAFRLQT | 4.849
KTINGRLSPHRKAQNQQT | 2.238

Sequence | Fold enrichment over TTM-001 [fold]
KTINGSCSPHVRAQNQQT | 2.406
KTINGSSSPHCLAQNQQT (peptide inserted in AAV capsid) | 2.074
KTINGSGSPHSKAQLVLT | 2.508
KTINGSGSPHSKRAMQQT | 3.801
KTINGSGSPHSKWLLQQT | 4.521
KTINGVVSPHRKAQNQQT | 3.106
KTINGSGSPHSKAARTQT | 2.266
KTINGSGSPHSKAQYYVT | 6.283
KTINGSGSPHSKLIRQQT | 3.968
KTINGSGSPHSCAQNQQT | 2.030
KTINGSGSPHSKAKHLQT | 2.870
KTINGSGSPHRSRQNQQT | 2.270
KTINGSGSPHSKAQRLWT | 2.611
KTINGSGSPHSKAQRRST | 2.993
KTINGSGSPHSKSHRQQT | 2.145
KTINGSGSPHSTRLNQQT | 2.860
KTINGSGSPHSKAQLHRT | 2.618
KTINGSGSPHSKARMQQT | 2.184
KTINGSGSPHSKYPSQQT | 3.114
KTINGSKSPHFKAQNQQT | 3.285
KTINGSGSPHSWLSNQQT | 3.495
KTINGSGSPHSKAQLIVT | 2.235
KTINGSGSPHSSCLNQQT | 2.471
KTINGSGSPHSRWQNQQT | 3.372

Sequence | Fold enrichment over TTM-001 [fold]
KTINGSGSPHSLFRNQQT | 4.037
KTINGRSSPHRKAQNQQT | 2.965
KTWVRSGSPHSKAQNQQT | 2.186
KTINGSGSPHSKAQCYVT | 2.261
KTINGSGSPHSKAQYRLT | 2.088
KTINGSGSPHSKAWLLQT | 2.240
KTINGKLSPHMKAQNQQT | 2.449
KTINGIRSPHTKAQNQQT | 2.793
KTINGSGSPHSKTIRQQT | 2.453
KTINGSGSPHSKLWLQQT | 3.199
KTINGSGSPHSKARITQT | 2.525
KTINGSGSPHSKARFTQT | 2.233
KTINGSGSPHFHLQNQQT | 2.121
KTINGMRSPHGKAQNQQT | 2.527
KTINGRSSPHFKAQNQQT | 2.428
KTINGSGSPHWVSQNQQT | 2.007
KTINGSGSPHSCLLNQQT | 3.127
KTINGTPSPHRKAQNQQT | 2.244
KTRSRSGSPHSKAQNQQT | 3.669
KTINGSGSPHSKSERQQT | 2.263
KTINGSGSPHSKAQLFKT | 2.385
KTINGSGSPHIYLQNQQT | 2.542
KTINGSGSPHSKALWRQT | 2.015
KTINGSGSPHSIWQNQQT | 5.883

Sequence | Fold enrichment over TTM-001 [fold]
KTINGSGSPHSLRRNQQT | 4.985
KTINGSGSPHSKRSMQQT | 3.561
KTINGSGSPHSKSRHQQT | 2.685
KTINGSRSPHCSAQNQQT (peptide inserted in AAV capsid) | 2.426
KTINGSGSPHSRPRNQQT | 2.164
KTINGSGSPHYLLQNQQT | 2.011
KTINGWRSPHSKAQNQQT | 2.160
KTINGSGSPHSEIVNQQT | 4.931
KTINGSGSPHSKRTYQQT | 2.870
KTINGSGSPHSKRRNQQT | 2.877
KTINGSGSPHSKPSRQQT | 2.438
KTINGSGSPHSKARGYQT | 2.492
KTINGSGSPHSKRVLQQT | 2.035
KTINGSGSPHSKALRYQT | 3.076
KYSVGSGSPHSKAQNQQT (peptide inserted in AAV capsid) | 3.365
KTINGSGSPHSKRLAQQT | 2.397
KTINGSGSPHSRYSNQQT | 2.536
KTINGSGSPHSKAQLGKT | 2.000
KTINGSPSPHRRAQNQQT | 3.216
KTINGSGSPHSKSLKQQT | 2.013
KTINGSRSPHLRAQNQQT (peptide inserted in AAV capsid) | 3.410
KTINGSGSPHMYLQNQQT | 3.061
KTINGSGSPHSKARMTQT | 2.091
KTINGSGSPHSKALKRQT | 2.836

Sequence | Fold enrichment over TTM-001 [fold]
KTINGSGSPHSKGCLQQT | 2.320
KTINGSLSPHTWAQNQQT | 2.115
KTINGSGSPHSKARGTQT | 2.505
KTINGSGSPHSKRLPQQT | 2.279
KTINGSGSPHSYLINQQT | 2.650
KTINGSGSPHAFLQNQQT | 2.475
KTINGSGSPHSKAQVTLT | 2.179
KTINGSGSPHCSLQNQQT | 4.540
KTINGSGSPHSKAQNRKL | 2.084
KTINGSSSPHLCAQNQQT (peptide inserted in AAV capsid) | 3.402
KTINGSGSPHSKPTRQQT | 3.201
KTINFLRSPHSKAQNQQT | 3.331
KTINGSGSPHSSRKNQQT | 2.585
KTINGSSSPHWLAQNQQT (peptide inserted in AAV capsid) | 2.490
KTINGSSSPHSWAQNQQT (peptide inserted in AAV capsid) | 2.119
KTINGSGSPHRRMQNQQT | 2.004
KTINGSLSPHLFAQNQQT | 2.285
KTINGSGSPHSLLCNQQT | 3.644
KTINGSGSPHSKATRNQT | 2.756
KTINGSLSPHIYAQNQQT | 2.536
KTINGSGSPHSKLYMQQT | 2.015
KTINGSGSPHSKARLWQT | 2.914
KTINGSGSPHSYLRNQQT | 4.566
KTINGNLSPHRKAQNQQT | 2.250

Reference: patent US20260250318A1, “COMPOSITIONS AND METHODS FOR CROSSING THE BLOOD BRAIN BARRIER” (VOYAGER THERAPEUTICS, INC., priority 2022, published 2026)
